Experimental data taken from patent US11564911B2, “Small molecule dual-inhibitors of TRPV4 and TRPA1 for sanitizing and anesthetizing” (Duke University, priority 2016, dated 2023).
Where “and” joins values, the source holds several entries; their conditions need not be identical. Equal values may be shown once. Entries after “also recorded” stand apart in the source; their conditions may differ. Square brackets hold non-standard residues; d marks the D form. Peptide text beside a SMILES is read from it.

How the values were obtained:
[1] = test system: primary mouse keratinocytes (1° MK); assay: UVB-evoked Ca++ signaling in primary mouse keratinocytes (fluo-4); type: cell-based; conditions: for ET1-augmented UVB-induced Ca++ transients: co-exposure to ET1; for UVB-evoked Ca++ signal: GSK205 20 μM
Procedure: Ca++ imaging of 1° MK was conducted following routine procedures. For UVB stimulation, a customized device was built. The system comprised a printed circuit board for electrical interconnects and mechanical support and an ultraviolet light-emitting diode (UV LED).
The operating wavelength was 295 nm (FIG. 2A), with a full-width half-max of 12 nm. The optical power was 500 mW. The focal point was aimed at the plane of the upper surface of the quartz coverslip, which was used to minimize UV absorption along the optical path towards the cells (FIG. 2A-C). The optical intensity at the focal point was estimated to be 150 mW/mm^2.
(§1) Ca++ imaging of mouse 1° MK in response to chemical activation of TRPV4 was conducted after loading with 2 μM fura2-AM, following a ratiometric Ca2+ imaging protocol with 340/380 nm […] for dual excitation. Ratios of emissions were acquired at 0.5 Hz. ΔR/R0 was determined as the fraction of the increase of a given ratio over baseline ratio, divided by baseline ratio. For stimulation of cells with UVB, where fura-2 was not suitable because of the proximity of stimulation with 340/380 nm and 295 nm, 2 μM fluo4-AM was used instead. Ca++ imaging was carried out at 488 nm excitation, acquisition of emissions at 0.5 Hz, expressed as ΔF/F0. In the custom-built UV optical system, UV LEDs were capped with a ball lens, a transparent optical window in the shape of a hemispherical lens (FIG. 2B). The LED output optical beam focused at 15-20 mm from the lens, with a spot diameter of approximately 1.5-2.0 mm (FIG. 2C). […] The thermal equilibration stage was set for physiological temperature.

[2] = test system: primary mouse keratinocytes (1° MK); assay: ET1 immunocytochemistry in UVB-exposed primary mouse keratinocytes; type: cell-based; conditions: 295 nm UVB-LED
Procedure: 1° MK were exposed to UVB using the UV optical system (295 nm LED). 24 hours later the cells were fixed and fluorescently immunolabeled for ET1. Digital images were captured and subjected to morphometry.
Mouse keratinocytes were cultured on collagen coated quartz coverslips and then stimulated from the bottom using the previously mentioned UV optical system using the 295 nm LED. 24 hours later the cells were fixed in 4% formaldehyde in PBS for 20 minutes, permeabilized with 0.1% Triton X-100 in PBS for 10 minutes, washed, then blocked in 10% normal goat serum in PBS for 45 minutes. Coverslips were incubated overnight with primary antibody mouse anti-ET1 (1:200; Abcam), washed three times in PBS and incubated with secondary antibody for 2 hours at 25° C. Coverslips were washed three times in PBS, once with double-distilled H2O. Digital images were captured using a 40× immersion lens on the BX61 Olympus upright microscope. Morphometric analysis was conducted using ImageJ freeware with tailored regions-of-interest.

[3] = test system: primary mouse keratinocytes (1° MK); assay: ET1 secretion by non-stimulated primary mouse keratinocytes (ELISA); type: cell-based
Procedure: FIGS. 8A-8D: Central role for KC TRPV4 in UVB-evoked Ca^++ signaling and nocifensive behavior—ET1-related supplementary findings. (FIG. 8A) Augmentation of GSK101-evoked Ca^++ signaling by ET1. Shown are averaged Ca^++ measurements (fura-2) in response to 5 nM GSK101. Note the increase in signal in response to co-exposure to ET1. (FIG. 8B) ET1 secretion by non-stimulated 1° MK depends on TRPV4 and PLC. Shown are relative ET1 concentrations (determined by ELISA, pg/mL; vehicle-treated and WT control normalized to 100) in supernatant of non-stimulated 1° MK. Note the clear dependence on TRPV4, as indicated by a 50% reduction in Trpv4^−/− 1° MK. […] There is also down-regulation of ET1 secretion by a specific inhibitor of PLC (U73122), and by an ET-convertase inhibitor, CGS35066, which served as a control compound. In addition, PLC-inhibitor robustly affects ET1 secretion in WT and Trpv4^−/− 1° MK. (FIG. 8C) ET1 expression by UVB-exposed 1° MK depends on TRPV4 and PLC—immunocytochemistry. Shown is specific ET1 immunolabeling in 1° MK, exposed to UVB using the UVB-LEDs, as for Ca^++ imaging. Use of the UVB-LED device precluded application of a ET1 ELISA, only irradiated cells could be examined. […] (FIG. 8D) ET1 expression by UVB-exposed 1° MK depends on TRPV4 and PLC—quantification of immunocytochemistry.

TRPV4 [4] = target: TRPV4 (Homo sapiens, UniProt Q9HBA0); assay: TRPV4-mediated calcium influx in N2a cells with targeted expression of human TRPV4; type: cell-based; parameters: expressed in transfected cells; host or cells: N2a cells; conditions: 2.5 μM inhibitor, pre-incubation 10 min, 10 nM GSK101
Sequence of TRPV4 (Homo sapiens, UniProt Q9HBA0) (Q9HBA0 whole entry): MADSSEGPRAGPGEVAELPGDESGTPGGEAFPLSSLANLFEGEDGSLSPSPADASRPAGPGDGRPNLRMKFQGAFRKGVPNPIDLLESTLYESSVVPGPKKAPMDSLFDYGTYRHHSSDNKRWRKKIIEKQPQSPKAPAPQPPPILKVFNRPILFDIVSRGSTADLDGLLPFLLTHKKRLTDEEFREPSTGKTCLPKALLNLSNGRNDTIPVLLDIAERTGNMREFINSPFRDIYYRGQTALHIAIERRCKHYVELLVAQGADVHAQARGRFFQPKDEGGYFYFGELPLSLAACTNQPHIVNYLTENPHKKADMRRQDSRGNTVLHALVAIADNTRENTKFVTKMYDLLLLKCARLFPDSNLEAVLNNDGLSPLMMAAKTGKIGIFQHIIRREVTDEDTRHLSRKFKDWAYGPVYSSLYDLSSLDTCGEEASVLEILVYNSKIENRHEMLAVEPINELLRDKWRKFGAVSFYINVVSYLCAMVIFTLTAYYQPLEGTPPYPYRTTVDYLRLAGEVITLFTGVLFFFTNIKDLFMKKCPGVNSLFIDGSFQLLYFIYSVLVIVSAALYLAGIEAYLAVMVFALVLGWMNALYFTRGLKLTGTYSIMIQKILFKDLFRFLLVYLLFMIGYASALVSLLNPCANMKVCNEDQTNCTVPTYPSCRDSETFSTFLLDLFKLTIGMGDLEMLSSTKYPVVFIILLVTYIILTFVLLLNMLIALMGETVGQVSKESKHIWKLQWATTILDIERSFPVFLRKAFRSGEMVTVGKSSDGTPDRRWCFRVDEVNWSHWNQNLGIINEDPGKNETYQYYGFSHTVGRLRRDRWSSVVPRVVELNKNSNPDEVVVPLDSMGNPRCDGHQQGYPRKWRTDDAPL

TRPV4 (rat) = target: T1, TRPV4 (rat) (Rattus norvegicus, UniProt Q9ERZ8); assay: Ca++ imaging in N2a cells with directed expression of TRPV4, activation with GSK101; type: cell-based
T1 construct: expressed in transfected cells; host or cells: N2a (mouse neuroblastoma) cells
T1 sequence (Q9ERZ8 whole entry): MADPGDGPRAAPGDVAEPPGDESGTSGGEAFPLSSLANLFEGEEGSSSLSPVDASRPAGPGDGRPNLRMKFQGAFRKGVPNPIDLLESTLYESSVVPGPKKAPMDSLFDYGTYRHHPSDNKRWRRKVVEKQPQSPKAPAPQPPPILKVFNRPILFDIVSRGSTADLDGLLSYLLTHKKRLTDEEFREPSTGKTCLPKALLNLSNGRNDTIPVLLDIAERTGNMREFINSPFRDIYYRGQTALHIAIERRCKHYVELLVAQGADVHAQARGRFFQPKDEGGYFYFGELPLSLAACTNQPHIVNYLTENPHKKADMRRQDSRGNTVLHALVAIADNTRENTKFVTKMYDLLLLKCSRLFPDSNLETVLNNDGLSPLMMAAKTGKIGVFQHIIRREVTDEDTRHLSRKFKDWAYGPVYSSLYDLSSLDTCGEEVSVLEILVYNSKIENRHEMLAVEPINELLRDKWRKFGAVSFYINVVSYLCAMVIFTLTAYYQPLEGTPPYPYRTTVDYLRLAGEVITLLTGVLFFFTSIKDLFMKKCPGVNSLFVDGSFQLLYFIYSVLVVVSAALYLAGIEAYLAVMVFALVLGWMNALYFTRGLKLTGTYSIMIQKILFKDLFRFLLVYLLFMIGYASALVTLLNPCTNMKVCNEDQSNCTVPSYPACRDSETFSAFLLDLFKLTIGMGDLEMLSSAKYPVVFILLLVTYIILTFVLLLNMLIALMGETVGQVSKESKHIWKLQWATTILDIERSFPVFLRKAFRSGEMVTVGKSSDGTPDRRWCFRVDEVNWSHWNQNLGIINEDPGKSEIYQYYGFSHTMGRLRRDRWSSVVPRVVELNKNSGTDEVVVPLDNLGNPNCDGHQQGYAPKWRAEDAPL
Excerpt: FIGS. 26A-26B: Assessment of compounds in N2a cells with directed expression of TRPV4. […] The number on each bar corresponds to average peak ΔCa++ concentrations in ≈100 cells. […] Plot generated from averaged peak ΔCa++ concentration of 75 cells per data-point.

[5] = test system: Trpv4−/− mice, whisker-pad injection of formalin; assay: Formalin-evoked trigeminal irritant pain, systemic (i.p.) compound, Trpv4−/− mice; type: in vivo, mouse; conditions: 25 mg/kg i.p.
Procedure: FIGS. 31A-31D: 16-8 and 16-19 effectively attenuate formalin-evoked trigeminal irritant pain. (FIG. 31A) Time-course of nocifensive behavior in WT mice following whisker-pad injection of 4% formalin. The mice were pre-injected (i.p., 10 mg/kg; 15 min before formalin) with GSK205, 16-8 or 16-19. Note effective reduction of nocifensive behavior in the late “neural” phase by compounds 16-8, 16-19, not by GSK205. (FIG. 31B) Cumulative response binned into 3 phases: acute phase (0-5 min), interphase (5-15 min), and late “neural” phase (15-45 min). […] (FIG. 31C) As in (FIG. 31A), but also including Trpv4^−/− mice. Compounds were applied i.p. 15 min before formalin challenge, at 10 mg/kg except established TRPA1 blocker, A967079 (25 mg/kg). Previously-established attenuated nocifensive behavior in early and late phase in Trpv4^−/− mice was recapped, which was reduced further by TRPA1 blocker, A967079. (FIG. 31D) As in (FIG. 31B), plus inclusion of Trpv4^−/− mice. Robust effects of TRPA1-blocker, A967079, were mimicked equi-potently by 16-8 and 16-19 for early phase, and by 16-8 for late phase, partially by 16-19 for late phase. (FIG. 31A, FIG. 31C) show averaged behavioral metrics per time-point, bars in (FIG. 31B, FIG. 31D) represent mean±SEM; for (D) *p<0.05; #P<0.005, one-way ANOVA; for all panels n=5-8 mice/group.
Compounds were tested for their effect in reducing pain using an in vivo pain model in mice. For mouse formalin-evoked irritant behavior measurements, mice were well-fed, well-rested, and tested at the same time of day, at the same time-point of their circadian rhythm. They were allowed to acclimate to a plexiglas chamber for at least 30 min before testing, and received 10 μL subcutaneous injection of 4% of formalin (diluted from an aqueous solution of commercial 37% formaldehyde with normal saline (NS)) through a 30-gauge needle into the right whiskerpad, as further detailed in Luccarini et al. (J. Pain, 2006, 7, 908-914). Normal saline was used as control injection. After injection, mice were immediately placed back into the chamber and the rubbing behavior was recorded by a private consumer-type video-camera for a 45 min observation period. The recording time was divided into 9 blocks of 5 min, and a nociceptive score was determined per block by measuring the time that the animals spent rubbing the injected area predominantly with the ipsilateral fore-paw and rarely with hind-paw. This rubbing behavior with fore-paw is evoked by pain, which is distinct from itch behavior. Behavioral analysis was conducted by observers blinded to treatment.
We observed significant residual irritant-pain behavior in all phases of the formalin model in Trpv4^−/− mice, consistent with our previous report^13 (FIG. 31C,D). […] A reference TRPA1-inhibitory compound, A967079, was used at 25 mg/kg body weight as a positive control to inhibit TRPA1, based on a previous report^38. Reduction of pain behavior in Trpv4^−/− mice was striking, more than 50% in the late neural phase. […] We conclude that compound 16-8 also functions as a potent TRPA1-inhibitor in an in-vivo irritant pain model specifically designed to assess the contribution of TRPA1 to trigeminal irritant pain, and at least as potent as an established reference TRPA1-antagonistic compound.

[6] = test system: WT and oil-treated iKO mice; assay: Nocifensive behavior after ET1 footpad injection (von Frey); type: in vivo, mouse; conditions: 10 μL 100 nM ET-1 intraplantar
Procedure: ET1 injections: After determining base-line withdrawal thresholds, each animal received an intraplantar injection of 10 μL 100 nM ET-1 plus contralateral vehicle. Thresholds were again evaluated 1 hour after injection.
Hindpaw mechanical withdrawal thresholds were determined by the automated von Frey hair method, using a 0.5 mm diameter stainless steel filament, part of an automated plantar touch stimulator (Ugo Basile, Modena, Italy). Relevant detail included pre-test acclimatization in a quiet room for 30 min, conducting the test at the same time of day and blinded observers. The stimulus was delivered to the hindpaw, automatically discontinued upon withdrawal, and its intensity recorded automatically. 6-8 trials per animal were conducted, with equal exposure of both hindpaws, leading to an average withdrawal threshold. Results are reported as […], which was calculated by subtracting post-treatment from pre-treatment measurements, expressed as % or relative to 1.0.

TRPV4 [7] = target: T2, TRPV4 (Mus musculus, UniProt Q9EPK8); assay: Ca++ transients in primary mouse keratinocytes on chemical activation of TRPV4 (GSK101, 4α-PDD); type: cell-based; conditions: 1° MK
T2 construct: endogenous in cells; host or cells: primary mouse epidermal keratinocytes (1° MK)
T2 sequence (Q9EPK8 whole entry): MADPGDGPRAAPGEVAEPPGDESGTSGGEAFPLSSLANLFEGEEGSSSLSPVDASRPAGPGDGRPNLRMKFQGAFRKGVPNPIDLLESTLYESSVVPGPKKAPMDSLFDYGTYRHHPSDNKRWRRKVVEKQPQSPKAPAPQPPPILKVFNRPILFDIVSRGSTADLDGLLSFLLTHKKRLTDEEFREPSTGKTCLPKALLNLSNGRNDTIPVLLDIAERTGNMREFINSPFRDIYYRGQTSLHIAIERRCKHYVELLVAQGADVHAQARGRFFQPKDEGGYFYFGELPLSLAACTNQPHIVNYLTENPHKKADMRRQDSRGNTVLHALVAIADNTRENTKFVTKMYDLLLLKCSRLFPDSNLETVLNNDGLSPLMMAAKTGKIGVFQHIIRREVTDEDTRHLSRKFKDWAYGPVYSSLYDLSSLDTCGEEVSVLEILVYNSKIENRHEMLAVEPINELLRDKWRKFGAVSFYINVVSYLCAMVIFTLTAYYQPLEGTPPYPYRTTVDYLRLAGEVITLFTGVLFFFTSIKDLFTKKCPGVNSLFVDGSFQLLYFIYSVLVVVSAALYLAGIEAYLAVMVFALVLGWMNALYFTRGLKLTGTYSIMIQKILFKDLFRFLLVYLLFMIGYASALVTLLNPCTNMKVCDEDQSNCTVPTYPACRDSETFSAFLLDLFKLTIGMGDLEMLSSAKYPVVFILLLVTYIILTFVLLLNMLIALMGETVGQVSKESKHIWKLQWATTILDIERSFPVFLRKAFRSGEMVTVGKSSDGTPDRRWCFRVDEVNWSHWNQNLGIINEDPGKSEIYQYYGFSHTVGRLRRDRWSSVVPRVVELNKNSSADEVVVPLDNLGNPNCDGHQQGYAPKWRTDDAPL
Procedure: as §1, with “temperature. We confirmed the non-thermal nature of UVB stimulation using the customized 295 nm LED device in a dedicated experiment (FIG. 2D), thus confirming the specific modality of stimulation as UVB.” for “temperature.”

Compound	ET1 immunoreactivity in UVB-exposed 1° MK [2]	UVB-evoked Ca++ signal [1]	ET1 secretion, supernatant of non-stimulated 1° MK [3]	also measured
CC(C)C[C@@H]1NC(=O)[C@@H](C(C)C)NC(=O)[C@@H]2CCCN2C(=O)[C@@H](CC(=O)O)NC(=O)[C@@H](Cc2c[nH]c3ccccc23)NC1=O [BQ123] (cyclo(L[dW][dD]P[dV]))	–	–	–	ET1-augmented UVB-induced Ca++ transients [1]: attenuated
CCCC[C@@H](NC(=O)[C@@H](Cc1cn(C(=O)OC)c2ccccc12)NC(=O)[C@H](CC(C)(C)C)NC(=O)N1[C@H](C)CCC[C@@H]1C)C(=O)O [BQ788]	–	–	–	ET1-augmented UVB-induced Ca++ transients [1]: attenuated
O=C(O)C(Cc1ccc2c(c1)oc1ccccc12)NCP(=O)(O)O (centres unmarked) [CGS35066]	significant down-regulation	significantly diminished	down-regulation	–
CCN(CCc1ccc(Nc2nc(-c3cccnc3)cs2)cc1)Cc1ccccc1 [Compound 16-18]	–	–	–	inhibition of TRPV4-mediated calcium influx (peak calcium concentration) (TRPV4 [4]): most potent; IC50 (TRPV4 (rat); N2a cells, rat TRPV4, 5 nM GSK101, averaged peak ΔCa++, read-out: IC50, inhibition of TRPV4-mediated Ca++ influx): 810 nM and 590 nM; increased potency versus parental compound GSK205 (TRPV4 (rat); from IC50 values, rat TRPV4 in N2a cells): ~5 fold; inhibition of TRPV4-mediated Ca++ influx, first round screening (TRPV4 (rat); inhibitor 5 μM, 5 nM GSK101): two most potent
CCC(=N\O)/C(C)=C/c1ccc(F)cc1 [Compound A967079, reference compound]	–	–	–	reduction of pain behavior in the late neural phase [5]: more than 50%
COc1ccc2c(c1)CC[C@@H]1[C@@H]2CC[C@]2(C)[C@@H](NCCCCCCN3C(=O)C=CC3=O)CC[C@@H]12 [Compound U73122]	significant down-regulation	virtually eliminated; also recorded: strongly reduced	down-regulation	–
C=C(C)CCO[P@@](=O)(O)OP(=O)(O)O [IPP, isopentenyl pyrophosphate]	–	not inhibited	–	–
CC(C)NCCN(C(C)C)S(=O)(=O)c1ccc(Cl)cc1Cl [RN1734]	significant down-regulation	–	significant down-regulation	–
ET1: endothelin-1 peptide, cognate ligand of endothelin receptors	–	significant increase	–	mechanical withdrawal after footpad injection [6]: significant levels of mechanical allodynia; GSK101-evoked Ca++ transient (TRPV4 [7]; 5 nM GSK101, GSK205 20 μM): augmented; 4α-PDD-evoked Ca++ transient (TRPV4 [7]; fura-2): significant increase
